Data published in patent US20100190834A1, “COMPOSITION FOR OPHTALMIC DISEASE ASSOCIATED WITH HYPOXIA OR ISCHEMIA” (R-TECH UENO, LTD., priority 2007, published 2010).
Marks after values point to notes of the source that are not given here.

System: oxygen-induced retinopathy model mouse
Test: Oxygen-induced retinopathy model mouse (model of retinopathy of prematurity), retina flat mount analysis
Format: in vivo, C57BL/6N mouse
Details: for abnormal angiogenesis region (%) / normal blood vessel region (%): average, p < 0.05 vs medium; for avascular region (result in words) / effect on abnormal angiogenesis (result in words): summary of Table 1 and Table 2, compared with medium group
Method: A model experiment of retinopathy of prematurity, which is an ophthalmic disease associated with hypoxia or ischemia, was performed based on a quantitative analysis method of oxygen-induced retinopathy model mouse (Experimental Eye Research 84 (2007) 529-536).
The date of birth of mouse was taken as day 0 of age. On day 7 of age, the mouse was placed in a high oxygen concentration breeding device together with the mother mouse and bred under high oxygen conditions (oxygen concentration 75±5%) up to day 12 of age. On day 12 of age, the high oxygen concentration breeding was terminated and the mouse was immediately placed under general breeding with intraperitoneal administration of the medium or test solution 1 twice a day for 7 days. On day 19 of age, retina flat mount was prepared from 4 mice out of the litter.
The mice were anesthetized by intraperitoneal administration of nembutal (1/10-fold diluted, 5 mg/mL) at 0.1 mL/mouse. The thoracic cavity was opened, and 1 mL of fluorescein isothiocyanate-dextran (FITC-dextran 20 mg/mL, FD2000S-1G, manufactured by SIGMA) was perfused from the heart.
After perfusion, the eyeball was immediately isolated, and fixed with 4% para-formaldehyde for 3-4 hr. The eyeball was anatomized to isolate retina, which as developed on a slide glass to prepare a flat mount. The whole retina area, avascular region and abnormal angiogenesis region were encircled with a stylus pen (CTE-640/S1, WACOM FVO) under a fluorescence microscope (ECLIPSE 80i, manufactured by Nikon), and measured using an analysis soft (WinROOF ver. 5.7.0, MITAMI Cor.), based on which the normal blood vessel region and abnormal angiogenesis region were calculated and compared.
normal blood vessel region (%): [{(whole retina area)−(area of avascular region)}/(whole retina area)]×100
abnormal angiogenesis region (%): {(abnormal angiogenesis region)/(whole retina area)}×100
In the same manner as in Experimental Example 1 except that test solution 2 was administered once a day, test solution 2 was intraperitoneally administered to model mouse for 7 days, and the normal blood vessel region and abnormal angiogenesis region thereof were measured.

[1] = test solution 1 (0.01 mg/mL) intraperitoneal twice a day for 7 days from day 12 of age, retina flat mount on day 19, 12 eyes
[2] = test solution 2 (0.01 mg/mL) intraperitoneal once a day for 7 days, 18 eyes

Compound: CC(=O)Nc1nc(CCc2ccc(CC(=O)NN)cc2)cs1 [test substance 1, N-{4-[2-(4-hydrazinocarbonylmethylphenyl)ethyl]-1,3-thiazol-2-yl}acetamide]
- abnormal angiogenesis region (%) [1]: 7.04* %
- normal blood vessel region (%) [1]: 93.44* %
- avascular region (result in words): a decrease in the avascular region
- effect on abnormal angiogenesis (result in words): a suppressive effect on abnormal angiogenesis

Compound: CC(=O)Nc1nc(CCc2ccc(CCNC(=N)N)cc2)cs1 [test substance 2, N-(4-{2-[4-(2-{[amino(imino)methyl]amino}ethyl)phenyl]ethyl}-1,3-thiazol-2-yl)acetamide]
- abnormal angiogenesis region (%) [2]: 6.79* %
- normal blood vessel region (%) [2]: 94.69* %
- avascular region (result in words): a decrease in the avascular region
- effect on abnormal angiogenesis (result in words): a suppressive effect on abnormal angiogenesis
